Common to all, as to format: biochemical
The target of test [1] is T1, wild type KDM4D (Homo sapiens, UniProt Q6B0I6).
T1 construct: human KDM4B and KDM4D jmjC catalytic domain for bacterial; Strep II (N); made in house; host or cells: E. coli Rosetta [DE3]
The experiment in a line: MALDI-MS demethylase assay on H3K9me3 peptide. On the procedure:
(§1) We next tested the inhibitory potential of 6 against these proteins using H3K9me3 peptide substrate and analyzed it by MALDI-MS. […] We subsequently examined the ability of asKDM4 variants to demethylate full-length histones extracted from mammalian cells. HEK293T cells were cultured in the presence of 10 μM n-octyl IOX1, a broad-spectrum inhibitor of demethylases,[41],[42] to generate a hypermethylated proteome (Figure S19). The extracted histone was incubated with the as variants individually, each with or without 6, and the extent of demethylation was analyzed by Western blot using the H3K9me3-specific antibody. […]
(§2) assay (Biorad) kit with BSA concentrations as a standard. […]
(§3) 8. Demethylase activity of the wild type and mutant KDM4 proteins on peptide substrate To monitor enzymatic activity, a demethylase activity assay was optimized and then observed through MALDI-TOF.7 Each histone demethylase assay sample included either wild type or mutant enzyme (10µM KDM4A, 7.5µM KDM4C, 10µM KDM4D, or 1µM KDM4E), 10 µM peptide, 200 µM 2OG, 50 mM Tris pH 8, […], 0-200µM NOG analogue, and 2 mM L-ascorbic acid with a total assay volume of 10 µL. Fe(II) supplement and L-ascorbic acid […]
(§4) Lastly, the 2OG and peptide were […]
(§5) positive mode and analyzed on Bruker FlexAnalysis software. The percent demethylated peptide […]
(§6) the multiple demethylation events on the peptide. […]

Test [2] deals with T2, wild type KDM4C (Homo sapiens, UniProt Q9H3R0).
T2 construct: 6xHis-tagged human KDM4C catalytic domain construct; 6xHis (N); made in house; host or cells: E. coli BL21 [DE3] star
The experiment in a line: MALDI-MS demethylase assay on H3K9me3 peptide. The protocol:
as §1, §2, §3, §4, §5, §6

Test [3] addresses T3, wild type KDM4E (Homo sapiens, UniProt B2RXH2).
T3 construct: we recombinantly expressed the catalytic domains of 12 wild type dioxygenases, in addition to KDM4A-E; 6xHis (N); host or cells: E. coli BL21 (DE3)
The experiment in a line: MALDI-MS demethylase assay on H3K9me3 peptide. The protocol: as §1, §2, §3, §4, §5, §6

Test [4] concerns the target T4, KDM4D-F189A (Homo sapiens, UniProt Q6B0I6, F189A).
T4 construct: human KDM4B and KDM4D jmjC catalytic domain for bacterial; Strep II (N); made in house; host or cells: E. coli Rosetta [DE3]
The experiment in a line: MALDI-MS demethylase assay on H3K9me3 peptide. The settings on record: 50 µM (Fig S15). On the procedure: as §1, §2, §3, §4, §5, §6

For test [5], the target named is T5, KDM4C-F187A (Homo sapiens, UniProt Q9H3R0, F187A).
T5 construct: 6xHis-tagged human KDM4C catalytic domain construct; 6xHis (N); made in house; host or cells: E. coli BL21 [DE3] star
Kind of test: MALDI-MS demethylase assay on H3K9me3 peptide. The conditions noted are these: 50 µM (Fig S14). The protocol: as §1, §2, §3, §4, §5, §6

Test [6] concerns the target T6, KDM4E-F186A (Homo sapiens, UniProt B2RXH2, F186A).
T6 construct: we recombinantly expressed the catalytic domains of 12 wild type dioxygenases, in addition to KDM4A-E; 6xHis (N); host or cells: E. coli BL21 (DE3)
Kind of test: MALDI-MS demethylase assay on H3K9me3 peptide. The protocol: as §1, §2, §3, §4, §5, §6

In test [7] the target is T7, KDM4A-F185A (Homo sapiens, UniProt O75164, F185A).
T7 construct: human KDM4A-jmjC domain (catalytic domain of KDM4A); 6xHis (N); host or cells: E. coli BL21 (DE3)
T7 sequence (O75164 142-308 F185A limits assumed): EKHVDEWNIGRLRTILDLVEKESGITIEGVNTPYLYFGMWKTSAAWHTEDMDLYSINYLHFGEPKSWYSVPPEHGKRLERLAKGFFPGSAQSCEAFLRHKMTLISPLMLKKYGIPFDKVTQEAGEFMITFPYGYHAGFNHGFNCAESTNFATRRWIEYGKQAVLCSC
Kind of test: MALDI-MS end-point demethylase assay on H3K9me3 peptide. The conditions noted are these: H3K9me3 peptide, 200 µM 2OG, fixed concentration of NOG analogue.
Source text: To develop an appropriate inhibitor, we selected N-oxalyl glycine (NOG, 2) scaffold because of its structural similarity with 2OG and the ability to inhibit 2OG-utilizing enzymes including KDMs (Figure 1C).[29]−[31] Substituting −CH2– at C3 of 2OG with −NH– in NOG prevents its oxidative decarboxylation by KDMs, making the inhibitor cofactor-competitive. […] We synthesized a panel of eight NOG analogues (3–10), derived from L-amino acids, carrying varied steric substituents at C4, with the reasoning that a bulky substituent at C4 would selectively fit into the expanded pocket of F185A over wild type KDM4A (Figures 2B and S1–S6, Schemes S1 and S2). The inhibitory effect of each compound was determined based on the extent of enzyme-catalyzed demethylation of a canonical peptide substrate corresponding to the N-terminus of histone 3 carrying trimethylated lysine at position 9 (H3K9me3). […] Such orthogonal inhibition of the engineered demethylase constitutes a powerful chemical probe to study the functions of a specific member of an enzyme family without issues of off-target activity. […]
as §2, §3, §4, §5, §6
varying concentrations (0-10 µM). […] The fluorescence intensity was measured with excitation = 340 nm and emission = 490 nm on a TECAN Infinite M1000Pro. […]
The set up and analysis for IC50 of L-Leu NOG against KDM4A F185A enzyme was similar to that described in the coupled fluorescence assay section, but adjusted to function as an end point assay. […]
and varying concentration of compounds (NOGs 6, 9 and 10) and a substrate cocktail (200 µM 2OG and 60 µM H3K9me3 peptide). Different concentrations of NOG 6 were measured at one time point ranging for 1-5 hours. For 9 and 10, the same set-up remained, but enzymatic activity was measured via MALDI-TOF analysis, and relative activity and inhibition was calculated for different NOG concentrations as described above. […]
and analyzed on Bruker FlexAnalysis software. The percent demethylated peptide was calculated by first multiplying the K27me1 peak by 2 and the K27me0 peak by 3 to account for the multiple

Like-named read-outs stand apart in the source and are kept apart here.

T5 sequence (Q9H3R0 144-310 F187A limits assumed): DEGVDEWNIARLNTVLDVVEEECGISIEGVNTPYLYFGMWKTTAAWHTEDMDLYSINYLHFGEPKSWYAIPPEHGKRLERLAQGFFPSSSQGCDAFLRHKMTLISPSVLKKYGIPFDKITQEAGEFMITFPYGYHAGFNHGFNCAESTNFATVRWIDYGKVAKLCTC
T1 sequence (Q6B0I6 146-312 limits assumed): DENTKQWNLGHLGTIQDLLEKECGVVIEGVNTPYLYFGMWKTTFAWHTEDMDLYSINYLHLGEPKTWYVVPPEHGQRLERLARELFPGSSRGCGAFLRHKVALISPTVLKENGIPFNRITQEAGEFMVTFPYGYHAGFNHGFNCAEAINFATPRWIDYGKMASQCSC
T4 sequence (Q6B0I6 146-312 F189A limits assumed): as the sequence (Q6B0I6 146-312 limits assumed) above, with F44A counted along it
T2 sequence (Q9H3R0 144-310 limits assumed): as the sequence (Q9H3R0 144-310 F187A limits assumed) above, with A44F counted along it
T6 sequence (B2RXH2 143-309 F186A limits assumed): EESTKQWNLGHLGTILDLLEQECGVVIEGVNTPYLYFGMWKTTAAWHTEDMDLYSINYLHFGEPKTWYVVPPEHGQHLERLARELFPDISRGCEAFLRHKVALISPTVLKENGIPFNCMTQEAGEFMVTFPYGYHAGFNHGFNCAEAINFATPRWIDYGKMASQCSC
T3 sequence (B2RXH2 143-309 limits assumed): as the sequence (B2RXH2 143-309 F186A limits assumed) above, with A44F counted along it

`CC(C)CC(NC(=O)C(=O)O)C(=O)O` (centres unmarked) [compound 6, N-oxalyl leucine]: the “inhibition of wild type KDM4D” value in test [1] is “fully refractory”; in test [1] (listed as NOG 6) it was “does not inhibit”. The “inhibition of wild type KDM4C” value in test [2] is given as “fully refractory”; in test [2] (listed as NOG 6) it was “does not inhibit”. Also, in test [3], the “inhibition of wild type KDM4E” value is reported as “fully refractory”. Also, the “inhibition of KDM4D-F189A” value was “significantly inhibited” in test [4] and “inhibits the mutant completely” in test [4] (listed as NOG 6). In addition, the “inhibition of KDM4C-F187A” value in test [5] is recorded as “significantly inhibited”; in test [5] (listed as NOG 6), “inhibits the mutant completely”. Moreover, the “inhibition of KDM4E-F186A” value in test [6] was “significantly inhibited”. Moreover, the “inhibition of F185A mutant demethylase activity (MALDI-MS)” value in test [7] was “complete inhibition”.
